In brackets after ≈: the same amount, converted by molar mass.
Tests used:
[1] = system: Pisum sativum; test: Phytotoxicity in Pisum sativum (pea) assessed as plant height at 4 kg ai/ha applied to soil measured up to 7 days post planting at 27 degC under green house conditions (reference value: 9.6 +/- 1.5 cm); type: organism-based; conditions: lathyrus oleraceus, in vivo, other, 168 h
[2] = system: Myzus persicae; test: Insecticidal activity against Myzus persicae (green peach aphid) infested tomato assessed as mortality applied through foliar spray after 5 days; type: functional
[3] = system: Pisum sativum; test: Phytotoxicity in Pisum sativum (pea) assessed as plant height at 3 kg ai/ha applied to soil measured up to 7 days post planting at 27 degC under green house conditions (reference value: 9.6 +/- 1.5 cm); type: organism-based; conditions: lathyrus oleraceus, in vivo, other, 168 h
[4] = system: Aphis gossypii; test: Insecticidal activity against Aphis gossypii (cotton aphid) infested cotton assessed as mortality applied to soil after 5 days; type: functional
[5] = system: Trichoplusia ni; test: Insecticidal activity against Trichoplusia ni (cabbage looper) infested cabbage assessed as mortality applied to soil after 72 hr; type: functional
[6] = system: Meloidogyne incognita; test: Nematicidal activity against second juvenile stage of Meloidogyne incognita (root-knot nematode) infected pea plant assessed as plant fresh weight at 4 kg ai/ha applied to soil measured up to 7 days post planting under green house conditions (reference value: 4.3 +/- 0.56 g); type: functional
[7] = system: Phaseolus lunatus; test: Phytotoxicity in Phaseolus lunatus (lima bean) plant assessed as plant dry weight at 2.12 kg ai/ha applied to soil measured up to 7 days under green house conditions (reference value: 1.20 +/- 0.21 g); type: organism-based; conditions: in vivo, other, 168 h
[8] = system: Meloidogyne incognita; test: Nematicidal activity against second juvenile stage of Meloidogyne incognita (root-knot nematode) infected pea plant assessed as emergence at 4 kg ai/ha applied to soil measured up to 14 days post planting under green house conditions (reference value: 75 +/- 13%); type: functional
[9] = system: Bemisia tabaci; test: Insecticidal activity against second-instar […] stage of Bemisia tabaci (sweet potato whitefly) infested cotton assessed as mortality applied through foliar spray after 6 days; type: functional
[10] = system: Meloidogyne incognita; test: Nematicidal activity against second juvenile stage of Meloidogyne incognita (root-knot nematode) infected lima bean plant assessed as shoot dry weight at 4 kg ai/ha applied to soil measured up to 14 days post planting under green house conditions (reference value: 1.84 +/- 0.18 g); type: functional
[11] = system: Pisum sativum; test: Phytotoxicity in Pisum sativum (pea) assessed as root dry weight at 2 kg ai/ha applied to soil measured up to 7 days post planting at 19 degC (reference value: 2 +/- 0.21 g); type: organism-based; conditions: lathyrus oleraceus, in vivo, other, 168 h
[12] = system: Meloidogyne incognita; test: Nematicidal activity against second juvenile stage of Meloidogyne incognita (root-knot nematode) infected lima bean plant assessed as emergence at 1 kg ai/ha applied to soil measured during planting under green house conditions (reference value: 83 +/- 5%); type: functional
[13] = system: Pisum sativum; test: Phytotoxicity in Pisum sativum (pea) assessed as plant fresh weight at 3 kg ai/ha applied to soil measured up to 14 days post planting at 27 degC under green house conditions (reference value: 3.9 +/- 0.83 g); type: organism-based; conditions: lathyrus oleraceus, in vivo, other, 336 h
[14] = system: Meloidogyne incognita; test: Nematicidal activity against second juvenile stage of Meloidogyne incognita (root-knot nematode) assessed as mortality at 20 mg ai/L after 48 to 72 hr relative to control; type: functional
[15] = system: Pisum sativum; test: Phytotoxicity in Pisum sativum (pea) assessed as plant height at 2 kg ai/ha applied to soil measured up to 7 days post planting at 27 degC under green house conditions (reference value: 9.6 +/- 1.5 cm); type: organism-based; conditions: lathyrus oleraceus, in vivo, other, 168 h
[16] = system: Meloidogyne incognita; test: Nematicidal activity against second juvenile stage of Meloidogyne incognita (root-knot nematode) infected lima bean plant assessed as shoot dry weight at 2 kg ai/ha applied to soil measured up to 7 days post planting under green house conditions (reference value: 1.84 +/- 0.18 g); type: functional
[17] = system: Pisum sativum; test: Phytotoxicity in Pisum sativum (pea) assessed as plant fresh weight at 2 kg ai/ha applied to soil measured up to 7 days post planting at 27 degC under green house conditions (reference value: 3.9 +/- 0.83 g); type: organism-based; conditions: lathyrus oleraceus, in vivo, other, 168 h
[18] = system: Meloidogyne incognita; test: Nematicidal activity against second juvenile stage of Meloidogyne incognita (root-knot nematode) infected lima bean plant assessed as emergence at 3 kg ai/ha applied to soil measured up to 7 days post planting under green house conditions (reference value: 83 +/- 5%); type: functional
[19] = system: Phaseolus lunatus; test: Phytotoxicity in Phaseolus lunatus (lima bean) plant assessed as emergence at 0.56 kg ai/ha under green house conditions applied to soil (reference value: 70 +/- 16%); type: organism-based; conditions: in vivo, other
[20] = system: Myzus persicae; test: Insecticidal activity against Myzus persicae (green peach aphid) infested tomato assessed as mortality applied to soil after 5 days; type: functional
[21] = system: Trichoplusia ni; test: Insecticidal activity against Trichoplusia ni (cabbage looper) infested cabbage assessed as mortality applied through foliar spray after 72 hr; type: functional
[22] = system: Meloidogyne incognita; test: Nematicidal activity against second juvenile stage of Meloidogyne incognita (root-knot nematode) infected lima bean plant assessed as emergence at 2 kg ai/ha applied to soil measured up to 7 days post planting under green house conditions (reference value: 83 +/- 5%); type: functional
[23] = system: Phaseolus lunatus; test: Phytotoxicity in Phaseolus lunatus (lima bean) root assessed as root dry weight at 3.12 kg ai/ha applied to soil measured up to 14 days under green house conditions (reference value: 0.36 +/- 0.071 g); type: organism-based; conditions: in vivo, other, 336 h
[24] = system: Pisum sativum; test: Phytotoxicity in Pisum sativum (pea) assessed as emergence at 2 kg ai/ha applied to soil measured up to 7 days post planting at 27 degC under green house conditions (reference value: 70 +/- 3.3%); type: organism-based; conditions: lathyrus oleraceus, in vivo, other, 168 h
[25] = system: Meloidogyne incognita; test: Nematicidal activity against second juvenile stage of Meloidogyne incognita (root-knot nematode) infected pea plant assessed as root dry weight at 3 kg ai/ha applied to soil measured up to 14 days post planting under green house conditions (reference value: 0.25 +/- 0.041 g); type: functional
[26] = system: Pisum sativum; test: Phytotoxicity in Pisum sativum (pea) assessed as root dry weight at 3 kg ai/ha applied to soil measured up to 7 days post planting at 27 degC under green house conditions (reference value: 0.33 +/- 0.075 g); type: organism-based; conditions: lathyrus oleraceus, in vivo, other, 168 h
[27] = system: Meloidogyne incognita; test: Nematicidal activity against second juvenile stage of Meloidogyne incognita (root-knot nematode) infected pea plant assessed as reduction in root gall index at 3 kg ai/ha applied to soil measured up to 14 days post planting under green house conditions (reference value: 9.7 +/- 0.30%); type: functional
[28] = system: Meloidogyne incognita; test: Nematicidal activity against second juvenile stage of Meloidogyne incognita (root-knot nematode) infected lima bean plant assessed as shoot dry weight at 3 kg ai/ha applied to soil measured up to 14 days post planting under green house conditions (reference value: 1.84 +/- 0.18 g); type: functional
[29] = system: Meloidogyne incognita; test: Nematicidal activity against second juvenile stage of Meloidogyne incognita (root-knot nematode) infected pea plant assessed as root fresh weight at 4 kg ai/ha applied to soil measured up to 7 days post planting under green house conditions (reference value: 1.83 +/- 0.3 g); type: functional
[30] = system: Frankliniella occidentalis; test: Insecticidal activity against Frankliniella occidentalis (western flower thrips) infested beans assessed as mortality applied to soil after 7 days; type: functional

Q: What does the source list for CNC(=O)ON=C(C)SC [METHOMYL]?
A: Activity [1]: 9.1 cm; LC90 [2]: 44 µg/mL (≈ 271 µM); LC50 ([2]; Myzus persicae, foliar, 120 h): 9 µg/mL (≈ 55.5 µM); Activity [3]: 7 cm; LC90 [4]: 11 µg/mL (≈ 67.8 µM); LC50 ([4]; Aphis gossypii, soil, 120 h): 5 µg/mL (≈ 30.8 µM); LC90 [5]: 547 µg/mL (≈ 3370 µM); LC50 ([5]; Trichoplusia ni, soil, 72 h): 100 µg/mL (≈ 616 µM); Activity [6]: 5.5 g; Activity [7]: 0.66 g; Activity [8]: 38%; LC90 [9]: 1589 µg/mL (≈ 9800 µM); LC50 ([9]; Bemisia tabaci, foliar, 144 h): 203 µg/mL (≈ 1250 µM); Activity [10]: 1.02 g; Activity [11]: 3.1 g; Activity [12]: 100%; Activity [13]: 3.3 g; mortality at 20 µg/mL [14]: 95%; Activity [15]: 7.1 cm; Activity [16]: 1.83 g; Activity [17]: 3 g; Activity [18]: 83%; Activity [19]: 80%; LC90 [20]: 11 µg/mL (≈ 67.8 µM); LC50 ([20]; Myzus persicae, soil, 120 h): 1 µg/mL (≈ 6.16 µM); LC90 [21]: 533 µg/mL (≈ 3290 µM); LC50 ([21]; Trichoplusia ni, foliar, 72 h): 99 µg/mL (≈ 610 µM); Activity [22]: 100%; Activity [23]: 0.22 g; Activity [24]: 50%; Activity [25]: 0.25 g; Activity [26]: 0.2 g; Root_galling_index [27]: 0%; Activity [28]: 1.55 g; Activity [29]: 1.59 g; LC90 [30]: 36 µg/mL (≈ 222 µM); LC50 ([30]; Frankliniella occidentalis, soil, 168 h): 22 µg/mL (≈ 136 µM)

— ChEMBL document CHEMBL3045068, “Effect of methomyl and oxamyl soil applications on early control of nematodes and insects” (Pest Manag Sci, 2011)
